Here are results for 9 compounds from patent US20250289804A1, “SUBSTITUTED INDOLE COMPOUNDS AND METHODS OF USE THEREOF” (NOVARTIS PHARMA AG, priority 2021, published 2025).

Experiment [1] relates to MAC formation in normal human serum. The experiment is described as follows: Human serum MAC formation assay (zymosan-coated plates, 50% normal human serum). The conditions noted are these: 50% normal human serum with EGTA, 37° C. 30 minutes. As to the method: MAC deposition assay using normal human serum was applied to evaluate compound potency under physiologically relevant conditions. Black Maxisorp plates (Thermo Fisher, 437111) were coated with preactivated zymosan (Complement Technology, B400) at 0.5 mg/mL in carbonate buffer (pH 9.5, Sigma, C3041) at room temperature overnight. Compounds were serial diluted 3-fold in 100% DMSO for a 10-point dose-response curve. Normal human serum (Complement Technology, NHS) was diluted to 50% (v/v) with the gelatin buffer (4.2 mM HEPES pH 7.4, 0.15 mM CaCl2, 141 mM NaCl, 4.5 mM MgCl2, 0.1% gelatin) containing 20 mM EGTA or 20 mM EDTA. In conical bottom 96-well plates, 1 μL compound and 99 μL of serum-EGTA were mixed. Serum-EDTA was used as baseline control. The serum-compound mixture was incubated at room temperature for 15 minutes before being transferred to the washed zymosan plate for complement activation at 37° C. for 30 minutes. The reaction was terminated by decanting the reaction mixture and adding blocking buffer (Thermo Fisher, 37539) for 20 minutes. MAC formation on the ELISA plate was detected using 0.2 μg/mL mouse anti-human C9 neoepitope monoclonal antibody (Thermo Fisher, MA5-33373) diluted in phosphate-buffered saline with 0.05% Tween-20 (PBST). A goat anti-mouse IgG-HRP antibody (Thermo Fisher, A16072) was used at 1:2000 in PBST as secondary antibody. After washing, the reaction was developed using QuantaBlu (Thermo Fisher, 15169) for 20 minutes at room temperature. The plates were read at 325 nm excitation and 420 nm emission wavelengths. Percent inhibition values were generated using the baseline (EDTA-serum) and the maximum control (EGTA-serum). An IC50 for each compound was calculated using 4-parameter logistic regression.

In a further experiment the target is human C3bBb (Homo sapiens (Human), UniProt P00751). The experiment is described as follows: Human C3bBb enzyme assay (C3a generation from C3, ELISA). The format is biochemical. The settings on record: read-out: Human C3b:Bb IC50 Avg. Here is the method: Compounds disclosed herein were evaluated for their potency to inhibit human C3bBb in a biochemical assay. To generate active C3bBb complex in vitro, purified human C3b (Complement Technology, A114), CFB (Complement Technology, A135) and CFD (Complement Technology, A136) were mixed in a 1:1:1 ratio to a final concentration of 1 μM each in the C3bBb assay buffer (PBS pH 7.4, 100 μM NiCl2, 0.05% (w/v) CHAPS). The reaction mix was incubated at room temperature for 30 minutes on a rotating platform. […] On the day of the enzyme assay, a reaction mixture containing 3 nM C3bBb complex and 1 μM purified human C3 (Complement Technology, A113) was prepared in the C3bBb assay buffer. Compounds were serial diluted 3-fold in 100% DMSO for a 10-point dose-response curve. A 0.5 μL aliquot of diluted compound solution was transferred to a conical bottom 96-well plate, before 49.5 μL of the reaction mix was added to each well to initiate the reaction. The plate was incubated for 1 hour at room temperature. […] The generation of C3a from C3 by the C3bBb complex was measured using the MicroVue C3a Plus EIA ELISA kit (Quidel, A031). The concentration of C3a from each well was calculated using a standard curve. Percent inhibition values were generated using the baseline (C3 only) and the maximum control (DMSO instead of compound), and IC50 of each compound was calculated using 4-parameter logistic regression.

Setting [2] is: starred values: assay conducted with 1 nM C3b:Bb enzyme.

Where two headings read alike, the source gives them in different places. Where only a bound is given, the exact number is not on record here.

Sequence of human C3bBb (P00751 260-764): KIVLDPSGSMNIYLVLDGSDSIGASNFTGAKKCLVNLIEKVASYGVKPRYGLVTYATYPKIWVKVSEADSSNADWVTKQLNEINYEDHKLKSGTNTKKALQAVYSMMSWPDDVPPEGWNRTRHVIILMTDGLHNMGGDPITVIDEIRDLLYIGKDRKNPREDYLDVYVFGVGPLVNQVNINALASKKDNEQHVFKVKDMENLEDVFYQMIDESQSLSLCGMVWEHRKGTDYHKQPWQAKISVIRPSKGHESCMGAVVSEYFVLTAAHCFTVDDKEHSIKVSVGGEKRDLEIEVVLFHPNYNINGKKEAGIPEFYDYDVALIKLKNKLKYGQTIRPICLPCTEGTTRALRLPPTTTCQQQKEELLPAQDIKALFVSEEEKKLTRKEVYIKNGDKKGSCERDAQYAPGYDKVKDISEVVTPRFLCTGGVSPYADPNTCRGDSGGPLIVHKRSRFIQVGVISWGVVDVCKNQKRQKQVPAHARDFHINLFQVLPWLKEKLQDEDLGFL
Sequence of human C3bBb (P01024 23-667 partner): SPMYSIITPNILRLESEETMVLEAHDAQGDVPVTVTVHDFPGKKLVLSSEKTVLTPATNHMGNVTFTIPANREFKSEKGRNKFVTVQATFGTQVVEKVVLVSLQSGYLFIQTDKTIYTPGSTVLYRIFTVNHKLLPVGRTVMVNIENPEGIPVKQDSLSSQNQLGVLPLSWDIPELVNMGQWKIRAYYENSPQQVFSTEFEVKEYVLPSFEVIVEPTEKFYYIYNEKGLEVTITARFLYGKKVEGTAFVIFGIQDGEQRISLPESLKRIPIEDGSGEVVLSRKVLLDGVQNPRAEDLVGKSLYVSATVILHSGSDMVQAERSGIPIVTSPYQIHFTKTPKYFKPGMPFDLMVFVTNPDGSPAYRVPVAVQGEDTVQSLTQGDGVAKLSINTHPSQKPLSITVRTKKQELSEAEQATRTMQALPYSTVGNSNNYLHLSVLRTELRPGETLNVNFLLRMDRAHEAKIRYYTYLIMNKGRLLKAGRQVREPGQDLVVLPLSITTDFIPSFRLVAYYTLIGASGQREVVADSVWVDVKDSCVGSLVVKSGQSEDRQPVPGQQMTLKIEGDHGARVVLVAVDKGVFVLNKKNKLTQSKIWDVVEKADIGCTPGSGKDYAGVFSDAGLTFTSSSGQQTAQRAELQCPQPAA
Sequence of human C3bBb (P01024 749-1663 partner): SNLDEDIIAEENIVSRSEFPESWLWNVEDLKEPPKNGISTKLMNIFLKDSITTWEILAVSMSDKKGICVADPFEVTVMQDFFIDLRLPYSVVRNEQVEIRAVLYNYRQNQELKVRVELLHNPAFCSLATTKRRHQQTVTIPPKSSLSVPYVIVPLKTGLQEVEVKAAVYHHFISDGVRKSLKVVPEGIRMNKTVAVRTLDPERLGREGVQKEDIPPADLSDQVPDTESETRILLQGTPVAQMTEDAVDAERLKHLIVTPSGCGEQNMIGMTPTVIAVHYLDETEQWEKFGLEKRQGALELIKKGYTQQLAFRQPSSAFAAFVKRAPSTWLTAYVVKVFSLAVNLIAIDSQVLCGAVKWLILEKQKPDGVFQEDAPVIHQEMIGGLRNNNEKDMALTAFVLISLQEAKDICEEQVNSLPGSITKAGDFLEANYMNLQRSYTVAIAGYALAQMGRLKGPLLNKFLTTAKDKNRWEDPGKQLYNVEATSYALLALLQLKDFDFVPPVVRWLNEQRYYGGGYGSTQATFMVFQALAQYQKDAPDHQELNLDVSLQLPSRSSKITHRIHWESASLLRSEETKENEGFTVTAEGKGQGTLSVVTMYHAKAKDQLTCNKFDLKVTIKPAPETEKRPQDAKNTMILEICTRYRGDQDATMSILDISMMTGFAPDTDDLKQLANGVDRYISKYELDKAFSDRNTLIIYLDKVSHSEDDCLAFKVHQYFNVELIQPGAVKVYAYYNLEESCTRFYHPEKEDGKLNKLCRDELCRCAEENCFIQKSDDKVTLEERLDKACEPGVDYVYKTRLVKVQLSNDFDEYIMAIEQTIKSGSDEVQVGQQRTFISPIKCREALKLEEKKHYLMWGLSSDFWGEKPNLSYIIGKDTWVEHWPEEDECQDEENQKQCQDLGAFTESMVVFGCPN

As to `COc1cc(C)c2[nH]ccc2c1CN1CCN(CC2CC(F)(F)C2)C[C@H]1c1ccc(C(=O)O)cc1` [Example 67, (R)-4-(4-((3,3-difluorocyclobutyl)methyl)-1-((5-methoxy-7-methyl-1H-indol-4-yl)methyl)piperazin-2-yl)benzoic acid], the half-maximal inhibitory concentration (IC50) in experiment [1] lay in the range of 300 to 500 nM; at human C3bBb (setting [2]), 50 to 100 nM.

Consider `COc1cc(C)c2[nH]ccc2c1CN1CC[C@@]2(CCCO2)C[C@H]1c1ccc(C(=O)O)cc1` (single isomer, unassigned) [Example 33, 4-((5S,7S)-8-((5-methoxy-7-methyl-1H-indol-4-yl)methyl)-1-oxa-8-azaspiro[4.5]decan-7-yl)benzoic acid or 4-((5R,7S)-8-((5-methoxy-7-methyl-1H-indol-4-yl)methyl)-1-oxa-8-azaspiro[4.5]decan-7-yl)benzoic acid], for which the IC50 was greater than 500 nM in experiment [1] and greater than 100 nM at human C3bBb (setting [2]).

As for `COc1cc(C)c2[nH]ccc2c1CN1CCC2(COC2)CC1c1ccc(C(=O)O)cc1` (racemic) [Example 31, (±)-4-(7-((5-methoxy-7-methyl-1H-indol-4-yl)methyl)-2-oxa-7-azaspiro[3.5]nonan-6-yl)benzoic acid], the results for the IC50 (in experiment [1]; on human C3bBb (setting [2])) were greater than 500 nM and less than 10 nM, respectively.

Consider `COc1cc(C)c2[nH]ccc2c1CN1CC[C@H](NCC(F)(F)F)C[C@H]1c1ccc(C(=O)O)cc1` (racemic) [Example 14, (+)-trans-4-(1-((5-methoxy-7-methyl-1H-indol-4-yl)methyl)-4-((2,2,2-trifluoroethyl)amino)piperidin-2-yl)benzoic acid], for which the IC50 fell in the range of 100 to 200 nM in experiment [1] and 10 to 25 nM at human C3bBb (3 nM C3bBb complex, 1 μM human C3, 1 hour room temperature).

In the case of `COc1cc(C)c2[nH]ccc2c1CN1CC[C@]2(C[C@H]1c1ccc(C(=O)O)cc1)C[C@@H](OC(F)F)C2` (single isomer, unassigned) [Example 57, 4-((2R,4s,6S)-2-(difluoromethoxy)-7-((5-methoxy-7-methyl-1H-indol-4-yl)methyl)-7-azaspiro[3.5]nonan-6-yl)benzoic acid or 4-((2S,4r,6S)-2-(difluoromethoxy)-7-((5-methoxy-7-methyl-1H-indol-4-yl)methyl)-7-azaspiro[3.5]nonan-6-yl)benzoic acid], the results for the IC50 (in experiment [1]; at human C3bBb (setting [2])) were less than 100 nM and less than 10 nM, respectively.

Turning to `COc1cc(C)c2[nH]ccc2c1CN1CC[C@]2(C[C@H]1c1ccc(C(=O)O)cc1)C[C@@H](O)C2` (stereo in doubt) [Example 64, 4-((2R,4s,6S)-4-(2-hydroxy-7-((5-methoxy-7-methyl-1H-indol-4-yl)methyl)-7-azaspiro[3.5]nonan-6-yl)benzoic acid and 4-((2S,4r,6S)-2-hydroxy-7-((5-methoxy-7-methyl-1H-indol-4-yl)methyl)-7-azaspiro[3.5]nonan-6-yl)benzoic acid], the values for the IC50 (in experiment [1]; at human C3bBb (setting [2])) were 200 to 300 nM and 10 to 25 nM, respectively.

Take `COc1cc(C)c2[nH]ccc2c1CN1CC[C@H](CCC(F)(F)F)C[C@H]1c1ccc(C(=O)O)cc1` [Example 42, 4-((2S,4S)-1-((5-methoxy-7-methyl-1H-indol-4-yl)methyl)-4-(3,3,3-trifluoropropyl)piperidin-2-yl)benzoic acid]: the IC50 in experiment [1] is 200 to 300 nM; on human C3bBb (setting [2]), less than 10 nM.

For the compound `COc1cc(C)c2[nH]cc(F)c2c1CN1CCC2(C[C@H]1c1ccc(C(=O)O)cc1)CC(F)(F)C2` [Example 54, (S)-4-(2,2-difluoro-7-((3-fluoro-5-methoxy-7-methyl-1H-indol-4-yl)methyl)-7-azaspiro[3.5]nonan-6-yl)benzoic acid], the IC50 in experiment [1] is less than 100 nM; at human C3bBb (setting [2]) it was less than 10 nM.

Regarding `COc1cc(C)c2[nH]ccc2c1CN1CC[C@H](NCC(F)(F)F)C[C@H]1c1ccc(C(=O)O)cc1` [Example 15, 4-((2S,4S)-1-((5-methoxy-7-methyl-1H-indol-4-yl)methyl)-4-((2,2,2-trifluoroethyl)amino)piperidin-2-yl)benzoic acid], the values for the concentration for half-maximal inhibition (IC50) (in experiment [1]; at human C3bBb (setting [2])) were less than 100 nM and less than 10 nM, respectively.

By IC50 is commonly meant the concentration at which inhibition is half-maximal.
